According to patent US20160039778A1, “TRPV-1 RECEPTOR ANTAGONIST COMPOUND DERIVED FROM 1,3,4-THIADIAZOLE ALKYLAMIDES AND CHALCONES” (UNIVERSIDAD DE CONCEPCION, priority 2012, published 2016):
Where two headings read alike, the source gives them in different places. Each block holds one molecule with its values, some of them ahead of it.

Key:
[1] = biological target: T1, rat TRPV-1 receptor (Rattus norvegicus, UniProt O35433); test: Dose response curve, temperature activation of the TRPV-1 receptor in transfected HEK-293T cells; assay type: cell-based; conditions: relative fluorescence at 50° C., HEK-293T cells transfected with rat TRPV-1, two independent experiments, ± standard deviation
T1 construct: expressed in transfected cells; host or cells: HEK-293T
T1 sequence (O35433 whole entry): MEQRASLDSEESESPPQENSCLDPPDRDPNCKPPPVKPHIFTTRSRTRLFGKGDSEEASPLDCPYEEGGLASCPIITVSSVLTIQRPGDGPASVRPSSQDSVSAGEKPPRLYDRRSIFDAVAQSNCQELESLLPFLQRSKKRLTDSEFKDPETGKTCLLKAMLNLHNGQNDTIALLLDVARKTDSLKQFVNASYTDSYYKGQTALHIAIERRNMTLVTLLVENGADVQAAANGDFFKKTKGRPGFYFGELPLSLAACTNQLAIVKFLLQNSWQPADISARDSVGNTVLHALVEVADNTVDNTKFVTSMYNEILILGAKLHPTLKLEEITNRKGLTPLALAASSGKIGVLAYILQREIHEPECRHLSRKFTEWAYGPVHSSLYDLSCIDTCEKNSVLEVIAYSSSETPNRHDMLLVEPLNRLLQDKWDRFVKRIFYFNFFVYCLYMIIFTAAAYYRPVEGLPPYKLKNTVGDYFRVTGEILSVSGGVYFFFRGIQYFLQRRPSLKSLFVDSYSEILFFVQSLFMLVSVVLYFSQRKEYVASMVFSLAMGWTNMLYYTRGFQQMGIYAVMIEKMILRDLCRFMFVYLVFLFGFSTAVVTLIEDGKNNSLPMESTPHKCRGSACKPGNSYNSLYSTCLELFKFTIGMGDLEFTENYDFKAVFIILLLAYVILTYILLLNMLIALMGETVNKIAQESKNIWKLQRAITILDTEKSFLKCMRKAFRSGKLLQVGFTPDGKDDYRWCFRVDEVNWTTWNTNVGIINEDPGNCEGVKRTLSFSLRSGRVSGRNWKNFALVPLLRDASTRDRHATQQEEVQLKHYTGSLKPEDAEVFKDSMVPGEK
Protocol: The synthesized compounds were evaluated in HEK-293T cell cultures transfected with cDNA from rat TRPV receptors. […] The influx of calcium was measured with a fluorescent probe, Fluo 4-AM, as in the presence of an antagonist the calcium influx is blocked by the inactivation of the TRPV-1 receptor and cellular fluorescence decreases.
The HEK-293T cells were cultured in a DMEM medium supplemented with 5% fetal bovine serum, 50 U/ml penicillin, […] streptomycin and 2 mM L-glutamine. The cultures were kept at 37°, in a 5% CO2 environment, with 80% relative humidity.
The HEK-293T cells were transfected with rat TPRV-1 pcDNA3, 97 μOpti-MEM and 3 μL of Lipofectamine 2000 were added to a reaction tube and to a second tube 1 μg of DNA and one volume of Opti-MEM were added to complete 100 μL. Both tubes were incubated for 10 minutes, after which they were mixed and incubated for another 15 minutes.
After 48 hours of transfection the cells were treated with 200 μL of trypsin, left to incubate for 5 minutes at room temperature, then gently pipetted and transposed to a 15 ml tube. After being centrifuged at a speed of 6,000 rpm for 10 minutes, the cells were re-suspended in 1 ml of Ringer medium, adding 1 μl of Fluo-4AM 1000×, and incubated at 37° C. for half an hour. After being centrifuged and washed with pH 7.34 PBS 1× to remove the excess probe the cell pellet was re-suspended in 1.5 ml of Ringer medium.
Once the rat TRPV-1 receptor had been transfected, Fluo-4 AM charged HEK 293T cells were plated out in 48-well plates at a cellular density of 50,000 cells per well, with a transfection percentage of 40-50%. Subsequently 2 μL/well of each assayed compound were added and the cells left to incubate at room temperature for 5-10 minutes before the execution of the experiment by temperature. The fluorescence measurements were then read on a real time PCR system that allows an increment of 1° C. every 35 seconds from 36° C. to 55° C. for compounds and from 22-56° C. for transfected cells in absence of compounds. Reading of the fluorescence measurement was done using a FAM filter ([…]). […] The values were then normalized, the data being expressed as relative fluorescence, which is the ratio between the fluorescence variation and the base line.
An assay was carried out on temperature activation of the TRPV-1 receptor by incubating the transfected and Fluo-4AM charged HEK-293T cells in the presence of different concentrations of each compound assayed: 1 μM; 0.1 μM; 0.01 μM; 0.003 μM; 0.001μM; 0.0003 μM, 0.0001 μM y 0.00001 μM. The relative fluorescence data obtained at 50° C. was then used to calculate the fluorescence ratio, which is presented as normalized in relation to the relative fluorescence at initial concentration. In this way, the fluorescence ratios obtained through two independent experiments were averaged and expressed with the respective standard deviation.

[2] = biological target: TRPV1 receptor; conditions: cited from earlier work; for selectivity for the TRPV-1 receptor: literature statement
[3] = literature statement; cited from earlier work
[4] = literature statement; cited from earlier work; remark: listed apart in the source
[5] = literature statement; cited from earlier work; remark: listed apart in the source
[6] = read-out: half maximal inhibitory concentration (IC50), TRPV1 antagonist
[7] = literature value, read-out: half maximal inhibitory concentration (IC50), TRPV1 antagonist
[8] = 1,3,4-thiadiazole alkylamide derivatives

IC50 ([1]; chalcone derivatives): 0.257 ± 0.016 nM
Structure (SMILES): COc1cc(C=C(Cl)C(=O)c2ccccc2)ccc1O (stereo in doubt) [q, (2E)-chloro-3-(4-hydroxy-3-methoxyphenyl)-1-phenyl prop-2-en-1-one]

Structure (SMILES): CCCCCCCCC(=O)NCc1cc(I)c(O)c(OC)c1 [5-iodononivamide]
IC50 [2, 6]: 10 nM

Structure (SMILES): C=C(C)[C@]12C[C@@H](C)[C@@]34O[C@](Cc5ccccc5)(O[C@@H]1[C@@H]3C=C(COC(=O)Cc1cc(I)c(O)c(OC)c1)C[C@]1(O)C(=O)C(C)=C[C@@H]41)O2 [5-iodoresiniferatoxin]
IC50 [2, 7]: 0.4 nM

Structure (SMILES): CCCCCCCCC(=O)NCc1cc(OC)c(O)cc1I [6-iodononivamide]
IC50 [2, 6]: 126 nM

Structure (SMILES): CC(C)(C)c1ccc(/C=C/C(=O)Nc2ccc3c(c2)OCCO3)cc1 [(E)-3-(4-t-butylphenyl)-N-(2,3-dihydrobenzo[b][1,4]dioxin-6-yl)acrylamide]
IC50 ([2]; literature value, read-out: antagonistic activity IC50): 79 nM

Structure (SMILES): CC(C)(C)c1ccc(NC(=O)N2CCN(c3ncccc3Cl)CC2)cc1 [BCTC, N-(4-tertiarybutylphenyl)-4-(3-cholorphyridin-2-yl)tetrahydropyrazine-1(2H)-carbox-amide]
aqueous solubility [3]: poor | IC50 ([2]; depending on the type of species (rat, mouse or human) of the TRPV1 receptor, literature value, read-out: half maximal inhibitory concentration (IC50), TRPV1 antagonist): 2 to 6 nM | half-life [4]: short | oral bioavailability [4]: moderate | metabolic stability [5]: low

IC50 [1, 8]: 0.046 ± 0.004 nM
Structure (SMILES): CCCCCCCCC(=O)Nc1nnc(-c2cc(I)c(O)c(OC)c2)s1 [a, N-[5-(4-hydroxy-5-methoxy-3-iodophenyl)-1,3,4-thiadiazole-2-yl]-nonamide]

IC50 [1, 8]: 0.145 ± 0.051 nM
Structure (SMILES): CCCCCCCCC(=O)Nc1nnc(-c2ccc(O)c(OC)c2)s1 [b, N-[5-(4-hydroxy-3-methoxyphenyl)-1,3,4-thiadiazole-2-yl]-nonamide]

Structure (SMILES): Oc1cc2c(cc1O)CN(C(=S)NCCc1ccc(Cl)cc1)CCC2 [capsazepine]
selectivity for the TRPV-1 receptor [2]: low selectivity | IC50 [2, 7]: 56.2 nM | metabolic stability [5]: metabolically unstable

IC50 [1, 8]: 1.09 ± 0.497 nM
Structure (SMILES): CCCCCCCC(=O)Nc1nnc(-c2ccc(O)c(OC)c2)s1 [d, N-[5-(4-hydroxy-3-methoxyfenil)-1,3,4-thiadiazole-2-yl]-octanamide]

IC50 [1, 8]: 1.263 ± 0.009 nM
Structure (SMILES): CCCCCCC(=O)Nc1nnc(-c2cc(I)c(O)c(OC)c2)s1 [e, N-[5-(4-hydroxy-5-methoxy-3-iodophenyl)-1,3,4-thiadiazole-2-yl]heptanamide]

IC50 [1, 8]: 0.298 ± 0.026 nM
Structure (SMILES): CCCCCC(=O)Nc1nnc(-c2ccc(O)c(OC)c2)s1 [h, N-[5-(4-hydroxy-3-methoxyfenil)-1,3,4-thiadiazole-2-yl]-hexanamide]

IC50 ([1]; chalcone derivatives): 1.02 ± 0.206 nM
Structure (SMILES): O=C(/C=C/c1ccccc1)c1ccc(Br)cc1 [i]

Structure (SMILES): COc1ccc(/C=C/C(=O)c2ccc(Br)cc2)cc1 [j, (2E)-1-(4-bromophenyl)-3-(4-methoxyphenyl) prop-2-en-1-one]
IC50 ([1]; chalcone derivatives): 3.89 ± 0.225 nM

Structure (SMILES): [La] [lanthanum]
selectivity for the TRPV-1 receptor [2]: lack selectivity | concentration at which activity is presented ([2]; non-competitive antagonist, blocks the ionic channel, literature value): ≥ 100 µM

IC50 ([1]; chalcone derivatives): 7.55 ± 1.9 nM
Structure (SMILES): O=C(/C=C/c1ccccc1)/C=C/c1ccccc1 [m, (1E, 4E)-1,5-diphenyl penta-1,4-dien-3-one]

IC50 ([1]; chalcone derivatives): 0.184 ± 0.023 nM
Structure (SMILES): O=C(/C=C/c1ccc(O)cc1)/C=C/c1ccc(O)cc1 [n, (1E, 4E)-1,5-(4-hydroxyphenyl) penta-1,4-dien-3-one]

Structure (SMILES): C=C(C)[C@]12C[C@@H](C)[C@@]34O[C@](Cc5ccccc5)(O[C@@H]1[C@@H]3C=C(COC(=O)Cc1ccc(O)c(OC)c1)C[C@]1(O)C(=O)C(C)=C[C@@H]41)O2 [resiniferatoxin]
agonist potency relative to capsaicin [2]: 10 times

Structure (SMILES): N.N.N.N.N.N.N.N.N.N.N.N.N.N.[Cl-].[Cl-].[Cl-].[Cl-].[Cl-].[Cl-].[O-2].[O-2].[Ru+3].[Ru+3].[Ru+4] [ruthenium red]
selectivity for the TRPV-1 receptor [2]: lack selectivity | IC50 ([2]; non-competitive antagonist, blocks the ionic channel, literature value, read-out: antagonistic activity IC50): 170 nM
